Test results as given in PubChem BioAssay AID2060494 (Molecular Pharmacology Branch, DTP, NCI, 2025).
Several values for one entry are separate records, joined by “and”; a condition that tells them apart may be missing. Equal entries are not always repeated.

Tested on: 435261-313-R-J1-PDC complex spheroid viability
Assay: Anticancer human tumor 435261-313-R-J1-PDC patient-derived colon adenocarcinoma cell line growth inhibition [GQUAD]
Conditions: for viability, T/C: stronger effect = lower value; active = viability on the fitted dose curve at most 10% of control; inactive = the rest
Source text: DNA G-quadruplex Stabilizer Agents in Combinations in Complex Spheroids
A high-throughput screen of multi-cell type tumor spheroids was designed to identify active combinations of DNA G-quadruplex stabilizer agents and targeted small molecules. Complex spheroids include a stromal component modeled by human endothelial cells (HUVEC) and fibroblasts modeled by human mesenchymal stem cells (MSCs). The concentration ranges selected for each drug and investigational agent were based upon clinically achievable concentrations if the clinical Cmax of the agent was known.
Compounds. The drugs and investigational agents: pidnarulex (CX-5461; NSC782164), APTO-253 (NSC789042), BRACO-19 (NSC847499), peposertib (NSC802822), ceralasertib (NSC780249), elimusertib (NSC800525), camonsertib (NSC841442), AZD-1390 (NSC803789), olaparib (NSC753686), talazoparib (NSC767125), ART-558 (NSC835418), sotorasib (NSC818433), MRTX-1133 (NSC836407), SN-38 (NSC673596), topotecan (NSC609699), etoposide (NSC141540), doxorubicin (NSC123127), gemcitabine (NSC613327), 5-fluorouracil (NSC19893), paclitaxel (NSC125973), vemurafenib (NSC761431), panobinostat (NSC761190), R-306465 (JNJ-16241199; NSC773264), adavosertib (NSC754352), TP-3654 (NSC805149), carboplatin (NSC241240), KSQ-4279 (NSC840948), and staurosporine (NSC755774) were obtained from the National Cancer Institute (NCI) Developmental Therapeutics Program Chemical Repository (34). The FDA-approved anticancer drug set is available from the NCI Developmental Therapeutics Program. […] The stock solutions were prepared in dimethyl sulfoxide (DMSO, Sigma-Aldrich, St. Louis, MO, cat. D2650) at 800-fold the tested concentration and stored at -70 degrees C prior to their use. All drugs and investigational agents were tested over a range starting from a high concentration at or near the clinical Cmax and decreasing in half-log increments. If the clinical Cmax for an agent had not been determined, the highest concentration tested was 10 microM.
2.3 Cell Culture. All cells were maintained in an incubator at 37 degrees C and 5% CO2 with 95% humidity. The PDC lines were cultured according to standard operating procedures established by the NCI PDMR. All PDCs were thawed and cultured in Matrigel-coated flasks prepared with a working solution of 1X Ham's F-12 nutrient mix, without supplementation (Invitrogen, cat. 11765054), 100 U/mL penicillin-streptomycin (Invitrogen, cat. 15140122), and 2.5% Matrigel (Corning Inc., cat. 354248) for the first three passages. The 857933-349-R-J2-PDC line was cultured in 6C/Colon 1B media, which includes advanced DMEM/F-12 (Thermo Fisher Scientific, cat. 12634028), 10 mM HEPES (Thermo Fisher Scientific, cat. 15630080), 1X GlutaMAX supplement (Thermo Fisher Scientific, cat. 35050061), 0.1 mg/mL primocin (InvivoGen, cat. ant-pm-2), 10% defined fetal bovine serum, heat inactivated (HyClone Laboratories Inc., cat. SH30070.03HI), 50% L-WRN conditioned media (ATCC, cat. CRL-3276), 1.25 mM N-Acetyl-L-cysteine (Sigma-Aldrich, cat. A9165), 10 mM nicotinamide (Sigma-Aldrich, cat. N0636), 1X B-27 supplement (Thermo Fisher Scientific, cat. 17504044), 1X N-2 supplement (Thermo Fisher Scientific, cat. 17502048), 10 microM Y-27632 dihydrochloride (Tocris Bioscience, cat. 1254), and 50 ng/mL human EGF recombinant protein (Thermo Fisher Scientific, cat. PHG0311). The 485176-168-R4-J1-PDC line was cultured in Panc media, which includes all 6C/Colon 1B media components plus 100 ng/mL human FGF-10 (Thermo Fisher Scientific, cat. 100-26), 500 nM SB-431542 (Selleckchem, cat. S1067), and gastrin (Tocris, cat. 3006).
[…]

[1] = curve of first compound, second compound 0.0316 µM
[2] = curve of first compound, second compound 0.1 µM
[3] = curve of first compound, second compound 0.316 µM
[4] = curve of first compound, second compound 1 µM
[5] = curve of first compound, second compound 3.16 µM
[6] = curve of first compound, second compound 10 µM
[7] = second compound 0.0316 µM, first compound 0.0316 µM
[8] = second compound 0.0316 µM, first compound 0.316 µM
[9] = second compound 0.1 µM, first compound 0.0316 µM
[10] = second compound 0.1 µM, first compound 0.316 µM
[11] = second compound 0.316 µM, first compound 0.0316 µM
[12] = second compound 0.316 µM, first compound 0.316 µM
[13] = second compound 1 µM, first compound 0.0316 µM
[14] = second compound 1 µM, first compound 0.316 µM
[15] = second compound 3.16 µM, first compound 0.0316 µM
[16] = second compound 3.16 µM, first compound 0.316 µM
[17] = second compound 10 µM, first compound 0.0316 µM
[18] = second compound 10 µM, first compound 0.316 µM
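Note: spheroids exposed to the agents for seven days before readout.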
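Throughout, for viability, T/C: percent of vehicle control viability with DMSO wells as 100%.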

CC1COCCN1c1cc(C2(S(C)(=N)=O)CC2)nc(-c2ccnc3[nH]ccc23)n1 (stereo unspecified) + Cc1[nH]c2ccc(F)cc2c1-c1nc2c3cccnc3c3ncccc3c2[nH]1
> 10000 nM: IC50 [1] | IC50 [2]
3270 nM: IC50 [3]
< 31.6 nM: IC50 [5] | IC50 [6]
1280 nM: IC50 [4]
inactive: viability, T/C [7] 111% | viability, T/C (second compound 0.0316 µM, first compound 0.1 µM) 85.9% | viability, T/C [8] 107% | viability, T/C (second compound 0.0316 µM, first compound 1 µM) 60.5% | viability, T/C (second compound 0.0316 µM, first compound 3.16 µM) 66% | viability, T/C (second compound 0.0316 µM, first compound 10 µM) 52.2% | viability, T/C [9] 93% | viability, T/C (second compound 0.1 µM, first compound 0.1 µM) 106% | viability, T/C [10] 90.5% | viability, T/C (second compound 0.1 µM, first compound 1 µM) 83.7% | viability, T/C (second compound 0.1 µM, first compound 3.16 µM) 80.2% | viability, T/C (second compound 0.1 µM, first compound 10 µM) 55.4% | viability, T/C [11] 94.2% | viability, T/C (second compound 0.316 µM, first compound 0.1 µM) 127% | viability, T/C [12] 74.8% | viability, T/C (second compound 0.316 µM, first compound 1 µM) 106% | viability, T/C (second compound 0.316 µM, first compound 3.16 µM) 50.1% | viability, T/C (second compound 0.316 µM, first compound 10 µM) 47.9% | viability, T/C [13] 54.4% | viability, T/C (second compound 1 µM, first compound 0.1 µM) 65.6% | viability, T/C [14] 68% | viability, T/C (second compound 1 µM, first compound 1 µM) 52.6% | viability, T/C (second compound 1 µM, first compound 3.16 µM) 36.4% | viability, T/C (second compound 1 µM, first compound 10 µM) 30% | viability, T/C [15] 29.6% | viability, T/C (second compound 3.16 µM, first compound 0.1 µM) 37.1% | viability, T/C [16] 30.3% | viability, T/C (second compound 3.16 µM, first compound 1 µM) 28.9% | viability, T/C (second compound 3.16 µM, first compound 3.16 µM) 21.6% | viability, T/C (second compound 3.16 µM, first compound 10 µM) 12.2% | viability, T/C [17] 30.7% | viability, T/C (second compound 10 µM, first compound 0.1 µM) 22.6% | viability, T/C [18] 28.1% | viability, T/C (second compound 10 µM, first compound 1 µM) 18.4% | viability, T/C (second compound 10 µM, first compound 3.16 µM) 14.9% | viability, T/C (second compound 10 µM, first compound 10 µM) 8.85%

CC1COCCN1c1cc(C2(O)CC3CCC(C2)O3)c2cnn(-c3ccn[nH]3)c2n1 (stereo unspecified)
259 nM and 174 nM: IC50 (curve of compound)
inactive: viability, T/C (compound 0.0316 µM) 85.4% and 89.4% | viability, T/C (compound 0.1 µM) 58.9% and 54.2% | viability, T/C (compound 0.316 µM) 49.8% and 43.1% | viability, T/C (compound 1 µM) 29.2% and 27% | viability, T/C (compound 3.16 µM) 26.7% and 20.5% | viability, T/C (compound 10 µM) 9.56% and 9.97%

CCc1c2c(nc3ccc(O)cc13)-c1cc3c(c(=O)n1C2)COC(=O)[C@]3(O)CC + Cc1[nH]c2ccc(F)cc2c1-c1nc2c3cccnc3c3ncccc3c2[nH]1
23.2 nM: IC50 [2]
23.8 nM: IC50 [3]
< 0.999 nM: IC50 [4] | IC50 [5] | IC50 [6]
21.2 nM: IC50 [1]
inactive: viability, T/C (second compound 0.0316 µM, first compound 0.000999 µM) 119% | viability, T/C (second compound 0.0316 µM, first compound 0.00316 µM) 62.1% | viability, T/C (second compound 0.0316 µM, first compound 0.00999 µM) 67% | viability, T/C [7] 46.7% | viability, T/C (second compound 0.0316 µM, first compound 0.0999 µM) 51.3% | viability, T/C [8] 33.8% | viability, T/C (second compound 0.1 µM, first compound 0.000999 µM) 93.9% | viability, T/C (second compound 0.1 µM, first compound 0.00316 µM) 64.4% | viability, T/C (second compound 0.1 µM, first compound 0.00999 µM) 58.5% | viability, T/C [9] 49.4% | viability, T/C (second compound 0.1 µM, first compound 0.0999 µM) 46.5% | viability, T/C [10] 33.9% | viability, T/C (second compound 0.316 µM, first compound 0.000999 µM) 53.6% | viability, T/C (second compound 0.316 µM, first compound 0.00316 µM) 51.5% | viability, T/C (second compound 0.316 µM, first compound 0.00999 µM) 53.2% | viability, T/C [11] 49.1% | viability, T/C (second compound 0.316 µM, first compound 0.0999 µM) 31.8% | viability, T/C [12] 29.7% | viability, T/C (second compound 1 µM, first compound 0.000999 µM) 45.6% | viability, T/C (second compound 1 µM, first compound 0.00316 µM) 55.6% | viability, T/C (second compound 1 µM, first compound 0.00999 µM) 32.9% | viability, T/C [13] 34% | viability, T/C (second compound 1 µM, first compound 0.0999 µM) 33.1% | viability, T/C [14] 23.8% | viability, T/C (second compound 3.16 µM, first compound 0.000999 µM) 32.8% | viability, T/C (second compound 3.16 µM, first compound 0.00316 µM) 30.6% | viability, T/C (second compound 3.16 µM, first compound 0.00999 µM) 35.4% | viability, T/C [15] 24% | viability, T/C (second compound 3.16 µM, first compound 0.0999 µM) 20.1% | viability, T/C [16] 21.2% | viability, T/C (second compound 10 µM, first compound 0.000999 µM) 22.2% | viability, T/C (second compound 10 µM, first compound 0.00316 µM) 18.8% | viability, T/C (second compound 10 µM, first compound 0.00999 µM) 25.3% | viability, T/C [17] 16.7% | viability, T/C (second compound 10 µM, first compound 0.0999 µM) 16.1% | viability, T/C [18] 17.3%
